Results from PMC12530851, “Design, synthesis, and apoptotic antiproliferative activity of novel dihydropyrimidine-5-carbonitrile/1,2,4-oxadiazole hybrids as dual EGFR/VEGFR-2 inhibitors endowed with antioxidant activity” (RSC Advances, 2025).

Columns and labels:
MCF-7 (breast cancer) = assay: Antiproliferative assay, MCF-7; format: cell-based, human; settings: for IC50: Homo sapiens, MCF7, MCF-7 breast cancer cells, read-out: Antiproliferative activity IC50 ± SEM, MCF-7
Source text: (§1) The dose–response experiments established the IC50 values for the new compounds. The given findings were obtained from at least two distinct studies, each comprising three repeats per concentration. Appendix A (SI File) provides experimental details.[38,39]
(§2) The MTT assay[43] was utilized to assess the antiproliferative effects of compounds 10a–l on four human cancer cell lines: HT-29 (colon cancer), Panc-1 (pancreatic cancer), A-549 (lung cancer), and MCF-7 (breast cancer). […]
(§3) 4.2.2. Assay for antiproliferative effect
(§4) To explore the antiproliferative potential of compounds propidium iodide fluorescence assay was performed using different cell lines such as Panc-1 (pancreas cancer cell line), MCF-7 (breast cancer cell line), HT-29 (colon cancer cell line) and A-549 (epithelial cancer cell line), respectively. To calculate the total nuclear DNA, a fluorescent dye (propidium iodide, PI) is used which can attach to the DNA, thus offering a quick and precise technique. PI cannot pass through the cell membrane and its signal intensity can be considered as directly proportional to quantity of cellular DNA. Cells whose cell membranes are damaged or have changed permeability are counted as dead ones. The assay was performed by seeding the cells of different cell lines at a density of 3000-7500 cells/well (in 200μl medium) in culture plates followed by incubation for 24h at 37 °C in humidified 5%CO2/95% air atmospheric conditions. The medium was removed; the compounds were added to the plates at 10 μM concentrations (in 0.1% DMSO) in triplicates, followed by incubation for 48h. DMSO (0.1%) was used as control. After incubation, medium was removed followed by the addition of PI (25 μl, 50μg/mL in water/medium) to each well of the plates. At - 80 °C, the plates were allowed to freeze for 24 h, followed by thawing at 25 °C. A fluorometer (Polar-Star BMG Tech) was used to record the readings at excitation and emission wavelengths of 530 and 620 nm for each well. The percentage cytotoxicity of compounds was calculated using […]
(§5) Where ATC= Absorbance of treated cells and AC= Absorbance of control. Erlotinib was used as positive control in the assay. […]

HT-29 (colon cancer) = assay: Antiproliferative assay, HT-29; format: cell-based; settings: Homo sapiens; HT-29 colon cancer cells; read-out: Antiproliferative activity IC50 ± SEM, HT-29
Source text: as §1, §2, §3, §4, §5

| IC50 (MCF-7 (breast cancer)) [nM] | IC50 (HT-29 (colon cancer)) [nM] | SMILES | Potency relative to erlotinib, MCF-7 (MCF-7 (breast cancer); more potent than erlotinib) |
| --- | --- | --- | --- |
| 20 ± 1 | 23 ± 1 | COc1ccc(-c2nc(SCc3nc(-c4ccc(Cl)cc4)no3)[nH]c(=O)c2C#N)cc1 [Compound 10k, 2-(((3-(4-Chlorophenyl)-1,2,4-oxadiazol-5-yl)methyl)thio)-4-(4-methoxyphenyl)-6-oxo-1,6-dihydropyrimidine-5-carbonitrile] | twice as potent |
| 22 ± 1 | 28 ± 1 | COc1ccc(-c2noc(CSc3nc(-c4ccc(OC)cc4)c(C#N)c(=O)[nH]3)n2)cc1 [Compound 10l, 2-(((3-(4-Methoxyphenyl)-1,2,4-oxadiazol-5-yl)methyl)thio)-4-(4-methoxyphenyl)-6-oxo-1,6-dihydropyrimidine-5-carbonitrile] |  |
